The structures appear in SMILES notation.

We go through 41 compounds from US7300946B2, “N-(substituted arylmethyl)-4-(disubstituted methyl) piperidines and pyridines” (Bayer CropScience AG, priority 2002, dated 2007).

The subject of this experiment is tobacco budworm (Heliothis virescens [Fabricius]). As to the kind of experiment: surface-treated diet test against the tobacco budworm. The conditions noted are these: tobacco budworm second instar larvae, 0.25 millimoles of candidate insecticide on the surface of the diet, five-day exposure; for Percent Mortality: compared to total number of insects infested; for Percent Growth Inhibition: inhibition of insect weight relative to untreated controls. It is filed as in vivo. The procedure, abridged:
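Wheat germ artificial diet surface-treated with 40 µL of 50 mM DMSO stock diluted 1:7 in 1:1 water/acetone (0.25 millimolar on diet), or sub-multiples for rate tests. One second-instar larva per well, 25° C, 60% RH, 5 days; percent weight inhibition vs DMSO controls and percent mortality.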

As to `C=CCNC(=O)OC(c1ccc(C(F)(F)F)cc1)C1CCN(Cc2ccc(Oc3ccccn3)cc2)CC1` (stereo not shown) [Compound 780], the “Percent Mortality” value was 0% and the “Percent Growth Inhibition” value worked out at 98%.
As for `CCn1nnc(-c2ccc(CN3CCC(C(OC(=O)Nc4ccc(Cl)cc4)c4cccc(F)c4)CC3)cc2)n1` (stereo not shown) [Compound 582], for the setting “surface-treated diet”, the “Percent Mortality” value is 100% and the “Percent Growth Inhibition” value is 100%.
Consider `CCn1nnc(-c2ccc(CN3CCC(C(OC(=O)Nc4cc(F)cc(F)c4)c4ccc(Cl)c(Cl)c4)CC3)cc2)n1` (stereo not shown) [Compound 575], for which, for the setting “surface-treated diet”, the “Percent Mortality” value amounted to 100% and the “Percent Growth Inhibition” value is listed as 100%.
Take `COc1ccccc1C(=O)Nc1ccc(CN2CCC(C(OC(=O)Nc3cc(F)cc(F)c3)c3ccc(C(F)(F)F)cc3)CC2)cc1` (stereo not shown) [Compound 553]: for the setting “surface-treated diet”, the “Percent Mortality” value was determined as 100% and the “Percent Growth Inhibition” value was 100%.
On to `CCn1nnc(-c2ccc(CN3CCC(C(OC(=O)Nc4cc(F)cc(F)c4)c4ccc(F)c(F)c4)CC3)cc2)n1` (stereo not shown) [Compound 589], for which, under “surface-treated diet”, the “Percent Mortality” value was 100% and the “Percent Growth Inhibition” value is given as 100%.
As for `CCOS(=O)(=O)[O-].CCO[N+]1(Cc2ccc(Oc3ccccn3)cc2)CCC(C(OC(=O)Nc2ccc(Cl)cc2)c2ccc(C(F)(F)F)cc2)CC1` (stereo not shown) [Compound 860, N-(4-chlorophenyl)({1-ethoxy-1-[(4-(2-pyridyloxy)phenyl)methyl](4-piperidyl)}[4-(trifluoromethyl)phenyl]methoxy)carboxamide, ethyl sulfate salt], the “Percent Mortality” value stood at 100% and the “Percent Growth Inhibition” value turned out to be 100%.
With `CCON=Cc1ccc(CN2CCC(C(OC(=O)Nc3cccc(C(F)(F)F)c3)c3ccc(C(F)(F)F)cc3)CC2)cc1` (stereo not shown) [Compound 204], under “surface-treated diet”, the “Percent Mortality” value is 100% and the “Percent Growth Inhibition” value is recorded as 100%.
In the case of `FC(F)(F)c1ccc(C(=C2CCN(Cc3ccc(Oc4ncccn4)cc3)CC2)c2cc(Cl)cc(Cl)c2)cc1` [Compound 819], the “Percent Mortality” value is listed as 50% and the “Percent Growth Inhibition” value was found to be 100%.
With `CCCOc1ccc(CN2CCC(=C(c3cccc(C(F)(F)F)c3)c3cccc(C(F)(F)F)c3)CC2)cc1` [Compound 45], for the setting “surface-treated diet”, the “Percent Mortality” value was 0% and the “Percent Growth Inhibition” value is 24%.
Take `Cn1nnc(-c2ccc(CN3CCC(C(NC(=O)c4ccccc4Cl)c4ccc(OC(F)(F)F)cc4)CC3)cc2)n1` (stereo not shown) [Compound 322]: under “surface-treated diet”, the “Percent Mortality” value is on record as 0% and the “Percent Growth Inhibition” value amounted to 78%.
In the case of `Cn1nnc(-c2ccc(CN3CCC(C(NC(=O)Oc4ccccc4Cl)c4ccc(OC(F)(F)F)cc4)CC3)cc2)n1` (stereo not shown) [Compound 347], under “surface-treated diet”, the “Percent Mortality” value amounted to 83% and the “Percent Growth Inhibition” value amounted to 100%.
Take `Cn1nnc(-c2ccc(CN3CCC(C(NC(=O)Nc4ccc(C(F)(F)F)cc4)c4ccc(OC(F)(F)F)cc4)CC3)cc2)n1` (stereo not shown) [Compound 344]: under “surface-treated diet”, the “Percent Mortality” value is on record as 100% and the “Percent Growth Inhibition” value is listed as 100%.
Take `CCn1nnc(-c2ccc(CN3CCC(C(OC(=O)Nc4ccc(Cl)c(Cl)c4)c4ccc(Oc5ccccc5)cc4)CC3)cc2)n1` (stereo not shown) [Compound 617]: where the note is “surface-treated diet”, the “Percent Mortality” value came to 0% and the “Percent Growth Inhibition” value turned out to be 14%.
Take `CCn1nnc(-c2ccc(CN3CCC(=C(c4ccc(C(F)(F)F)cc4)c4ccc(C(F)(F)F)cc4)CC3)cc2)n1` [Compound 82]: for the setting “surface-treated diet”, the “Percent Mortality” value stood at 100% and the “Percent Growth Inhibition” value came out at 100%.
As to `[O-][N+]1(Cc2ccc(Oc3ncccn3)cc2)CCC(=C(c2ccc(C(F)(F)F)cc2)c2ccccc2Cl)CC1` (stereo not shown) [Compound 857], the “Percent Mortality” value stood at 83% and the “Percent Growth Inhibition” value was found to be 100%.
Take `O=C(Nc1cc(F)cc(F)c1)OC(c1ccc(Cl)c(Cl)c1)C1CCN(Cc2ccc(Oc3ccccn3)cc2)CC1` (stereo not shown) [Compound 647]: under “surface-treated diet”, the “Percent Mortality” value is 100% and the “Percent Growth Inhibition” value is 100%.
Consider `FC(F)(F)c1ccc(C(Oc2ccc(Cl)nn2)C2CCN(Cc3ccc(Oc4ccccn4)cc3)CC2)cc1` (stereo not shown) [Compound 452], for which, for the setting “surface-treated diet”, the “Percent Mortality” value is listed as 67% and the “Percent Growth Inhibition” value amounted to 100%.
`CCON=Cc1ccc(C[N+]2([O-])CCC(C(OC(=O)Nc3cc(F)cc(F)c3)c3ccc(C(F)(F)F)cc3)CC2)cc1` (stereo not shown) [Compound 743]: the “Percent Mortality” value is 100% and the “Percent Growth Inhibition” value is 100%.
As for `CCn1nnc(-c2ccc(CN3CCC(C(OC(=O)Nc4ccc(F)c(F)c4)c4ccc(OC)cc4)CC3)cc2)n1` (stereo not shown) [Compound 603], under “surface-treated diet”, the “Percent Mortality” value was 100% and the “Percent Growth Inhibition” value amounted to 100%.
Take `Cn1nnc(-c2ccc(CN3CCC(C(NC(=O)Oc4cccc(Cl)c4)c4ccc(OC(F)(F)F)cc4)CC3)cc2)n1` (stereo not shown) [Compound 348]: for the setting “surface-treated diet”, the “Percent Mortality” value was 100% and the “Percent Growth Inhibition” value was 100%.
With `Cn1nnc(-c2ccc(CN3CCC(C(NC(=O)Oc4ccc(I)cc4)c4ccc(OC(F)(F)F)cc4)CC3)cc2)n1` (stereo not shown) [Compound 354], for the setting “surface-treated diet”, the “Percent Mortality” value was found to be 100% and the “Percent Growth Inhibition” value was found to be 100%.
In the case of `O=C(NCc1ccccc1)OC(c1ccc(C(F)(F)F)cc1)C1CCN(Cc2ccc(Oc3ccccn3)cc2)CC1` (stereo not shown) [Compound 659], under “surface-treated diet”, the “Percent Mortality” value amounted to 50% and the “Percent Growth Inhibition” value was found to be 100%.
As for `O=C(Nc1ccc(F)cc1F)OC(c1ccc(C(F)(F)F)cc1)C1CC[N+]([O-])(Cc2ccc(Oc3ccccn3)cc2)CC1` (stereo not shown) [Compound 753], the “Percent Mortality” value is recorded as 100% and the “Percent Growth Inhibition” value amounted to 100%.
For the compound `COc1ccc(CNC(c2ccc(OC(F)(F)F)cc2)C2CCN(Cc3ccc(-c4nnn(C)n4)cc3)CC2)cc1` (stereo not shown) [Compound 318], where the note is “surface-treated diet”, the “Percent Mortality” value was 100% and the “Percent Growth Inhibition” value was 100%.
Regarding `CCCNC(=O)OC(c1ccc(C(F)(F)F)cc1)C1CCN(Cc2ccc(Oc3ccccn3)cc2)CC1` (stereo not shown) [Compound 775], the “Percent Mortality” value is reported as 33% and the “Percent Growth Inhibition” value is listed as 100%.
Consider `CCON=Cc1ccc(CN2CCC(C(OC(=O)Nc3ccc(Cl)c(Cl)c3)c3ccc(C(F)(F)F)cc3)CC2)cc1` (stereo not shown) [Compound 189], for which, under “surface-treated diet”, the “Percent Mortality” value was determined as 100% and the “Percent Growth Inhibition” value worked out at 100%.
Take `[O-][N+]1(Cc2ccc(Oc3ncccn3)cc2)CCC(=C(c2ccc(C(F)(F)F)cc2)c2cccc(F)c2)CC1` (stereo not shown) [Compound 848]: the “Percent Mortality” value is listed as 83% and the “Percent Growth Inhibition” value is 100%.
`O=C(Nc1ccc(F)cc1)OC(c1ccc(Cl)c(Cl)c1)C1CCN(Cc2ccc(Oc3ccccn3)cc2)CC1` (stereo not shown) [Compound 646]: under “surface-treated diet”, the “Percent Mortality” value came to 100% and the “Percent Growth Inhibition” value stood at 100%.
On to `CCn1nnc(-c2ccc(CN3CCC(C(OC(=O)Nc4ccc(Cl)c(Cl)c4)c4cc(Cl)cc(Cl)c4)CC3)cc2)n1` (stereo not shown) [Compound 578], for which, under “surface-treated diet”, the “Percent Mortality” value stood at 100% and the “Percent Growth Inhibition” value was 100%.
For the compound `CCCOc1ccc(CN2CCC(C(OC(=O)Nc3ccc(F)cc3)c3ccc(Cl)c(Cl)c3)CC2)cc1` (stereo not shown) [Compound 481], where the note is “surface-treated diet”, the “Percent Mortality” value came to 100% and the “Percent Growth Inhibition” value was found to be 100%.
As to `CC(C)C(=O)Nc1ccc(CN2CCC(C(OC(=O)Nc3cc(F)cc(F)c3)c3ccc(C(F)(F)F)cc3)CC2)cc1` (stereo not shown) [Compound 496], under “surface-treated diet”, the “Percent Mortality” value came out at 100% and the “Percent Growth Inhibition” value stood at 100%.
`FC(F)(F)c1ccc(C(=C2CCN(Cc3ccccc3)CC2)c2ccccc2)cc1` [Compound 30]: for the setting “surface-treated diet”, the “Percent Mortality” value is given as 100% and the “Percent Growth Inhibition” value was found to be 54%.
As to `CCn1nnc(-c2ccc(CN3CCC(C(OC(=O)Nc4cc(Cl)cc(Cl)c4)c4ccc(C(F)(F)F)cc4)CC3)cc2)n1` (stereo not shown) [Compound 284], under “surface-treated diet”, the “Percent Mortality” value came to 100% and the “Percent Growth Inhibition” value stood at 100%.
In the case of `[O-][N+]1(Cc2ccc(Oc3ccccc3F)cc2)CCC(=C(c2ccc(C(F)(F)F)cc2)c2ccc(C(F)(F)F)cc2)CC1` (stereo not shown) [Compound 839], the “Percent Mortality” value is 100% and the “Percent Growth Inhibition” value came out at 100%.
For the compound `CCn1nnc(-c2ccc(CN3CCC(C(OC(=O)Nc4ccc(Oc5ccccc5)cc4)c4ccc(Oc5ccccc5)cc4)CC3)cc2)n1` (stereo not shown) [Compound 622], for the setting “surface-treated diet”, the “Percent Mortality” value was 0% and the “Percent Growth Inhibition” value amounted to 4%.
Take `C=CCOC(=O)Nc1ccc(C[N+]2([O-])CCC(=C(c3ccc(C(F)(F)F)cc3)c3ccc(C(F)(F)F)cc3)CC2)cc1` (stereo not shown) [Compound 836]: the “Percent Mortality” value is 100% and the “Percent Growth Inhibition” value stood at 100%.
Turning to `CC(C)COC(=O)Nc1ccc(CN2CCC(=C(c3ccc(C(F)(F)F)cc3)c3ccc(C(F)(F)F)cc3)CC2)cc1` [Compound 59], where the note is “surface-treated diet”, the “Percent Mortality” value is reported as 0% and the “Percent Growth Inhibition” value turned out to be 59%.
Regarding `O=C(Nc1ccc(F)c(F)c1)OC(c1ccc(C(F)(F)F)cc1)C1CC[N+]([O-])(Cc2ccc(Oc3ccccn3)cc2)CC1` (stereo not shown) [Compound 754], the “Percent Mortality” value came out at 100% and the “Percent Growth Inhibition” value was 100%.
`CC(C)NC(=O)OC(c1ccc(C(F)(F)F)cc1)C1CCN(Cc2ccc(Oc3ccccn3)cc2)CC1` (stereo not shown) [Compound 429]: under “surface-treated diet”, the “Percent Mortality” value was 100% and the “Percent Growth Inhibition” value is listed as 100%.
Take `O=C(NS(=O)(=O)c1ccc(Cl)cc1)OC(c1ccc(C(F)(F)F)cc1)C1CCN(Cc2ccc(Oc3ccccn3)cc2)CC1` (stereo not shown) [Compound 668]: where the note is “surface-treated diet”, the “Percent Mortality” value is recorded as 0% and the “Percent Growth Inhibition” value is 25%.
For the compound `COC(=O)N(c1ccc(C[N+]2([O-])CCC(C(OC(=O)Nc3cc(F)cc(F)c3)c3ccc(C(F)(F)F)cc3)CC2)cc1)c1ccccn1` (stereo not shown) [Compound 761], the “Percent Mortality” value is 100% and the “Percent Growth Inhibition” value turned out to be 100%.
